Experimental data reported in ChEMBL document CHEMBL6103552, “Identification of peptide-based hepatitis B virus capsid inhibitors based on the viral core protein” (Bioorg Med Chem Lett, 2025).
Active and inactive are the calls of the source. How the calls were made is not given here. Residues, ends and D or L forms follow the SMILES beside them.

What follows are molecules tested against Core antigen (Hepatitis B virus) (UniProt Q03732) (assay: Inhibition of Hepatitis B virus capsid formation at 100 uM treated during cell-free wild type HBV Cp synthesis using wheat germ lysates and HBV Cp RNA by Native capsid assay based western blot analysis).
Format: subcellular

Sequence of Core antigen (Hepatitis B virus) (Q03732 as listed by the source): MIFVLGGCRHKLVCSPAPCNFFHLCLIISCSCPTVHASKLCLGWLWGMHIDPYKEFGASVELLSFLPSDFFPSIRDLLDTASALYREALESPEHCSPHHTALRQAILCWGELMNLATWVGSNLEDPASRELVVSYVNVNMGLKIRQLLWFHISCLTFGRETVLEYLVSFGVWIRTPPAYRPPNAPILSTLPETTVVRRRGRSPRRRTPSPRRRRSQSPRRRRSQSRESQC

Row | Compound | inhibition
1 | CC(=O)NCC(=O)N[C@@H](CCCNC(=N)N)C(=O)N[C@@H](CCC(=O)O)C(=O)N[C@H](C(=O)N[C@H](C(=O)N[C@@H](CC(C)C)C(=O)N[C@@H](CCC(=O)O)C(=O)N[C@@H](Cc1ccc(O)cc1)C(=O)N[C@@H](CC(C)C)C(=O)N[C@H](C(=O)N[C@@H](CO)C(=O)N[C@@H](Cc1ccccc1)C(=O)NCC(=O)N[C@H](C(=O)N[C@@H](Cc1c[nH]c2ccccc12)C(N)=O)C(C)C)C(C)C)C(C)C)[C@@H](C)O (Ac-GRETVLEYLVSFGVW-NH2) | inactive
2 | CC[C@H](C)[C@H](NC(=O)[C@H](C)NC(=O)[C@H](CCC(N)=O)NC(=O)[C@@H]1CCCN1C(=O)[C@H](CC(C)C)NC(=O)[C@H](C)NC(=O)[C@@H](NC(=O)[C@H](Cc1c[nH]cn1)NC(=O)[C@H](Cc1c[nH]cn1)NC(C)=O)[C@@H](C)O)C(=O)N[C@@H](CC(C)C)C(=O)N[C@@H](CS)C(=O)N[C@@H](Cc1c[nH]c2ccccc12)C(=O)NCC(=O)N[C@@H](CCC(=O)O)C(=O)N[C@@H](CC(C)C)C(N)=O (Ac-HHTALPQAILCWGEL-NH2) | inactive
3 | CC[C@H](C)[C@H](NC(C)=O)C(=O)N[C@@H](CCCNC(=N)N)C(=O)N[C@H](C(=O)N1CCC[C@H]1C(=O)N1CCC[C@H]1C(=O)N[C@@H](C)C(=O)N[C@@H](Cc1ccc(O)cc1)C(=O)N[C@@H](CCCNC(=N)N)C(=O)N1CCC[C@H]1C(=O)N1CCC[C@H]1C(=O)N[C@@H](CC(N)=O)C(=O)N[C@@H](C)C(=O)N1CCC[C@H]1C(=O)N[C@H](C(=O)N[C@@H](CC(C)C)C(N)=O)[C@@H](C)CC)[C@@H](C)O (Ac-IRTPPAYRPPNAPIL-NH2) | inactive
4 | CC(=O)N[C@@H](CC(C)C)C(=O)N[C@@H](CC(=O)O)C(=O)N[C@H](C(=O)N[C@@H](C)C(=O)N[C@@H](CO)C(=O)N[C@@H](C)C(=O)N[C@@H](CC(C)C)C(=O)N[C@@H](Cc1ccc(O)cc1)C(=O)N[C@@H](CCCNC(=N)N)C(=O)N[C@@H](CCC(=O)O)C(=O)N[C@@H](C)C(=O)N[C@@H](CC(C)C)C(=O)N[C@@H](CCC(=O)O)C(=O)N[C@@H](CO)C(=O)N1CCC[C@H]1C(N)=O)[C@@H](C)O (Ac-LDTASALYREALESP-NH2) | inactive
5 | CC[C@H](C)[C@H](NC(=O)[C@H](Cc1c[nH]c2ccccc12)NC(=O)[C@@H](NC(=O)CNC(=O)[C@H](Cc1ccccc1)NC(=O)[C@H](CO)NC(=O)[C@@H](NC(=O)[C@H](CC(C)C)NC(=O)[C@H](Cc1ccc(O)cc1)NC(=O)[C@H](CCC(=O)O)NC(=O)[C@H](CC(C)C)NC(C)=O)C(C)C)C(C)C)C(=O)N[C@@H](CCCNC(=N)N)C(=O)N[C@H](C(=O)N1CCC[C@H]1C(=O)N1CCC[C@H]1C(N)=O)[C@@H](C)O (Ac-LEYLVSFGVWIRTPP-NH2) | inactive
6 | CC[C@H](C)[C@H](NC(=O)[C@H](Cc1c[nH]cn1)NC(=O)[C@H](Cc1ccccc1)NC(=O)[C@H](Cc1c[nH]c2ccccc12)NC(=O)[C@H](CC(C)C)NC(C)=O)C(=O)N[C@@H](CO)C(=O)N[C@@H](CS)C(=O)N[C@@H](CC(C)C)C(=O)N[C@H](C(=O)N[C@@H](Cc1ccccc1)C(=O)NCC(=O)N[C@@H](CCCNC(=N)N)C(=O)N[C@@H](CCC(=O)O)C(=O)N[C@H](C(=O)N[C@H](C(N)=O)C(C)C)[C@@H](C)O)[C@@H](C)O (Ac-LWFHISCLTFGRETV-NH2) | inactive
7 | CC(=O)N1CCC[C@H]1C(=O)N[C@@H](CCCNC(=N)N)C(=O)N[C@@H](CCCNC(=N)N)C(=O)N[C@@H](CCCNC(=N)N)C(=O)N[C@@H](CCCNC(=N)N)C(=O)N[C@@H](CO)C(=O)N[C@@H](CCC(N)=O)C(=O)N[C@@H](CO)C(=O)N[C@@H](CCCNC(=N)N)C(=O)N[C@@H](CCC(=O)O)C(=O)N[C@@H](CO)C(=O)N[C@@H](CCC(N)=O)C(=O)N[C@@H](CS)C(N)=O (Ac-PRRRRSQSRESQC-NH2) | inactive
